Patent US9505735B2, “Compounds for treating infectious diseases” (Whitehead Institute for Biomedical Research, priority 2012, dated 2016)

Experiments:
Gwt1 = biological target: T1, Gwt1 (Saccharomyces cerevisiae, UniProt P47026); assay: Antifungal susceptibility testing, screening strains with plasmid-borne GWT1 (low or high copy); format: cell-based, S. cerevisiae
T1 construct: Wildtype S. cerevisiae BY4741; endogenous in cells; host or cells: S. cerevisiae BY4741 (wild type)
T1 sequence (P47026 1-490): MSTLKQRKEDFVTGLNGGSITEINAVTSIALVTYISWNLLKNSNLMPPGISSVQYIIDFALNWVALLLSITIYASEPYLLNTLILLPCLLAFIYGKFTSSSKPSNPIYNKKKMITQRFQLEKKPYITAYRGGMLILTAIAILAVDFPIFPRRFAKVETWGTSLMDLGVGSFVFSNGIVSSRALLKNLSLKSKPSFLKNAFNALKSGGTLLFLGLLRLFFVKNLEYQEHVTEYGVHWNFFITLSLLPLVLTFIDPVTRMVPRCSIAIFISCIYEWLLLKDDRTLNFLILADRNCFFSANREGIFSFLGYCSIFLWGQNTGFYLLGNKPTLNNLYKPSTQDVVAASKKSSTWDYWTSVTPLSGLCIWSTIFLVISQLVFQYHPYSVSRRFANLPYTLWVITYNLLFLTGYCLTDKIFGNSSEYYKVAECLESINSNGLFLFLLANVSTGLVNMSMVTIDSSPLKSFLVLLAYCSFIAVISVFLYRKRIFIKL
Protocol: (§1) Sensitivity to gepinacin was determined in 96-well, flat bottom microtiter plates using a modification of the NCCLS broth microdilution protocol CLS M27-A3 and RPMI as culture medium. Fungi were inoculated at ˜10^3 cells per ml and incubated for 48 hours at 37° C. after which plates were sealed, shaken and the optical density read at 600 nm (OD600) on a Tecan Safire 2 plate reader. All samples were run in duplicate or triplicate and assays were repeated at least once. Results are expressed as fraction of growth in the absence of compound and the mean and standard deviation are plotted. For the mold A. terreus, inoculum was 10^4 cells per ml and plates were incubated at 35° C. for 48 hours in the dark. Plates were then visually scored as specified by CLSI document M38-A2 to determine the MIC50 and MIC80.
Because GWT1 deletion is lethal in S. cerevisiae strain BY4741, a haploid shuttle strain was constructed in which the genomic copy of GWT1 was deleted and replaced by GWT1 on a plasmid that also encoded the URA3 gene and a G418-resistance gene. To construct this shuttle strain a gwt1Δ/GWT1 heterozygous deletion mutant was transformed with pAGGPD416-GWT1, sporulated and dissected. A colony was selected that grew on both SD-URA and G418-containing plates. PCR with the deletion specific primers (http://wwwsequence.stanford.edu/group/yeast_deletion_project/deletions3.html) was performed to confirm the GWT1 deletion. To change the source of GWT, this shuttle strain was transformed with plasmids containing GWT1 (as a control) or PIG-W and the LEU2 auxotrophy gene followed by selection for growth on SD-LEU plates. Plasmids were constructed by conventional Gateway technology using a GWT1 encoding entry vector and either pAG415GPDccdB or pAG425GPDccdB as the destination vectors. Positive colonies were selected and grown on 5-fluoroorotic acid (5-FOA)-containing plates to promote loss of the pAGGPD416-GWT1 plasmid. The colonies from this plate were then tested for return of uridine auxotrophy to confirm pAGGPD416-GWT1 loss. The PIG-W expression vector was constructed by recombination in yeast as follows. The pAG415GPDccdB vector was cut with Xho1 and Xba1 and the larger piece was gel and column purified. The coding sequence of PIG-W was PCR amplified from the entry clone so that it would have ends facilitating recombination with the cut vector. The shuttle strain was then transformed with these two DNA fragments and plated on SD-LEU plates to select for recombinants. PIG-W plasmid was isolated from the final strain and sequence verified.
The following gepinacin analogs were tested for activity against Gwt1. Gepinacin, M3, CM2, CM4, CM6, CM7, CM8, and 857621-56-8 were available commercially. The compounds were tested using the “Antifungal Susceptibility Testing” protocol described above. Fungi tested are described in the “Fungal Strains” section above.
An S. cerevesiae strain was generated in which the endogenous Gwt1 gene was deleted. Plasmids (either high copy or low copy) with either S. cerevesiae or human Gwt1 were introduced to produce strains bearing such plasmids expressing either S. cerevesiae or human Gwt1 from a constitutive promoter. Yeast strains were cultured in liquid media in the presence of indicated compounds. Shown in FIGS. 22A-D show the effect of the indicated compounds on growth (assessed by OD600) and viability (assessed using Bactiter Glo) of the yeast strain with high copy or low copy plasmid containing S. cerevesiae Gwt1. The compounds had no effect on strains with the human Gwt1, thus showing the compounds' sensitivity for the fungal (yeast) Gwt1 gene.

Candida albicans = assay: Antifungal susceptibility testing, wild type and drug-resistant strains; format: cell-based
Protocol: Anti-fungal susceptibility testing of a fluconazole-resistant C. albicans strain under standard conditions. Yeast were incubated at 30° C. for 24 hours with serial dilutions of the indicated compounds. Growth was monitored by OD600 and is expressed as fraction of the growth observed in the absence of compound.
Archives of all strains were maintained in 25% glycerol at −80° C. Standard S. cerevisiae lab strains W303, BY4741, BY4742 and BY4743 were used for experiments. The C. albicans wild type strain in FIG. 1 was CaI4, a standard laboratory strain (Fonzi, et al. (1993) Genetics 134, 717-728). […]
as §1, with “All samples were run in duplicate or triplicate and assays were repeated at least once.” left out, “For the mold A. terreus, inoculum was 10^4 cells per ml and plates were incubated at 35° C. for 48 hours in the dark.” left out

In the case of `COc1ccc(NC(=O)COc2cccc(OCC(C)C)c2)cc1` [gepinacin], the “cell growth of the strain expressing the yeast gene (GWT1)” value (Gwt1) is reported as “potently inhibited”, the growth inhibition (Candida albicans) is reported as “inhibited the growth” and the “growth inhibition of isolates resistant to the three major classes of antifungals” value (Candida albicans; fluconazole-, amphotericin B-, caspofungin-resistant strains) is reported as “inhibited the growth of multiple isolates”.
